Tests used:
CbPrpB [1] = biological target: T1, CbPrpB (Coxiella burnetii, UniProt Q83DG5)
T1 construct: gene prpB

CbPrpB [2] = biological target: T1, CbPrpB; assay: biochemical

T1 sequence (Q83DG5 1-290): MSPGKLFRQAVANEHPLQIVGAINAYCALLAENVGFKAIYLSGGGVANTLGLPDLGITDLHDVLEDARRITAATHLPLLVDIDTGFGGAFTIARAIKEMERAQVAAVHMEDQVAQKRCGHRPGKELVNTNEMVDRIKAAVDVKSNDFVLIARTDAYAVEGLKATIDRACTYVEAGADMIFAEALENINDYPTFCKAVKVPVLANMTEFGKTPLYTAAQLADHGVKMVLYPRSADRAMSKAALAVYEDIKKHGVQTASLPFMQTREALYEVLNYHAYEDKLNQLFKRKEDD

Compound | X-ray crystal structure, soak (CbPrpB [1]) | Ki (CbPrpB [2])
CC(=O)C(=O)O [pyruvate] | We first determined the structure of product-bound CbPrpB | –
O=C(O)C[C@H](C(=O)O)[C@@H](O)C(=O)O [isocitrate] | – | 6 ± 2 mM
O=C(O)CCC(=O)O [succinate] | We first determined the structure of product-bound CbPrpB | –

Source: article doi:10.1101/2025.01.06.631558v1 (biorxiv, 2025)
